{"source": "paper PMC12566046", "about": "“Arylpiperazinyl-Benzocycloheptapyrrole-Carboxamides Endowed with Dual Anticancer and Antiviral Activities” (Molecules, 2025)", "key": {"[1]": {"system": "BT-549 (breast cancer cell line)", "assay": "NCI-60 single-dose assay", "assay_type": "cell-based, human", "conditions": "BT-549; 10^−5 M, single dose", "in_short": "(§1)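 NCI-60 one-dose format: each compound is tested at a single dose against human tumour lines for cytotoxic effect.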"}, "[2]": {"system": "CCRF-CEM (leukemia cell line)", "assay": "NCI-60 single-dose assay", "assay_type": "cell-based, human", "conditions": "10^−5 M, single dose", "in_short": "as §1"}, "[3]": {"system": "EKVX (non-small cell lung cancer cell line)", "assay": "NCI-60 single-dose assay", "assay_type": "cell-based, human", "conditions": "10^−5 M, single dose", "in_short": "as §1"}, "[4]": {"system": "HCT-116 (colon cancer cell line)", "assay": "NCI-60 single-dose assay", "assay_type": "cell-based, human", "conditions": "HCT-116; 10^−5 M, single dose", "in_short": "as §1"}, "[5]": {"system": "HT29 (colon cancer cell line)", "assay": "NCI-60 single-dose assay", "assay_type": "cell-based, human", "conditions": "HT29; 10^−5 M, single dose", "in_short": "as §1"}, "[6]": {"system": "LOX IMVI (melanoma cell line)", "assay": "NCI-60 single-dose assay", "assay_type": "cell-based, human", "conditions": "LOX IMVI; 10^−5 M, single dose", "in_short": "as §1"}, "[7]": {"system": "MCF-7 (breast cancer cell line)", "assay": "NCI-60 single-dose assay", "assay_type": "cell-based, human", "conditions": "MCF-7, 10^−5 M", "in_short": "as §1"}, "[8]": {"system": "MDA-MB-231/ATCC (breast cancer cell line)", "assay": "NCI-60 single-dose assay", "assay_type": "cell-based, human", "conditions": "MDA-MB-231/ATCC; 10^−5 M, single dose", "in_short": "as §1"}, "[9]": {"system": "MOLT-4 (leukemia cell line)", "assay": "NCI-60 single-dose assay", "assay_type": "cell-based, human", "conditions": "MOLT-4; 10^−5 M, single dose", "in_short": "as §1"}, "[10]": {"system": "NCI-H23 (non-small cell lung cancer cell line)", "assay": "NCI-60 single-dose assay", "assay_type": "cell-based, human", "conditions": "NCI-H23; 10^−5 M, single dose", "in_short": "as §1"}, "[11]": {"system": "SN12C (renal cancer cell line)", "assay": "NCI-60 single-dose assay", "assay_type": "cell-based, human", "conditions": "10^−5 M, single dose", "in_short": "as §1"}, "[12]": {"system": "T-47D (breast cancer cell line)", "assay": "NCI-60 single-dose assay", "assay_type": "cell-based, human", "conditions": "T-47D; 10^−5 M, single dose", "in_short": "as §1"}, "[13]": {"system": "UO-31 (renal cancer cell line)", "assay": "NCI-60 single-dose assay", "assay_type": "cell-based, human", "conditions": "UO-31; 10^−5 M, single dose", "in_short": "as §1"}, "[14]": {"system": "RPMI-8226 (leukemia cell line)", "assay": "NCI-60 five-dose assay", "assay_type": "cell-based, human", "conditions": "five doses (10^−4–10^−8 M), read-out: Growth inhibition 50 (GI50)"}, "SR (leukemia cell line)": {"system": "SR (leukemia cell line)", "assay": "NCI-60 five-dose assay", "assay_type": "cell-based, human", "conditions": "five doses (10^−4–10^−8 M), read-out: Growth inhibition 50 (GI50)"}, "[15]": {"system": "HCT-116 (colon cancer cell line)", "assay": "NCI-60 five-dose assay", "assay_type": "cell-based, human", "conditions": "five doses (10^−4–10^−8 M), read-out: Growth inhibition 50 (GI50)"}, "[16]": {"system": "HT29 (colon cancer cell line)", "assay": "NCI-60 five-dose assay", "assay_type": "cell-based, human", "conditions": "five doses (10^−4–10^−8 M), read-out: Growth inhibition 50 (GI50)"}, "Breast Cancer panel": {"system": "Breast Cancer panel", "assay": "NCI-60 five-dose assay, panel-level GI50 (mean graph midpoint)", "assay_type": "cell-based, human", "conditions": "Breast Cancer panel average; read-out: GI50 mean graph midpoint (MG_MID)", "method": "(§2) Due to these preliminary results, six compounds, 1, 5, 10, 11, 17, and 20, were selected for the five-dose screen NCI-programme against the same panel of tumour cell lines.\n(§3) Next, a mean graph midpoint (MG_MD) was calculated for compounds 1, 5, 10, 11, 17, and 20 and reported as waterfall graphs GI50, TGI, and LC50 in the Supplementary Materials (Figures S69–S86). In Table 9, we reported the average GI50 for the nine-cancer panels, underlining both the activity and selectivity for compounds 1, 10, 11, and 20."}, "CNS Cancer panel": {"system": "CNS Cancer panel", "assay": "NCI-60 five-dose assay, panel-level GI50 (mean graph midpoint)", "assay_type": "cell-based, human", "conditions": "CNS Cancer panel average; read-out: GI50 mean graph midpoint (MG_MID)", "method": "as §2, §3"}, "[17]": {"system": "Non-Small Cell Lung Cancer panel", "assay": "NCI-60 five-dose assay, panel-level GI50 (mean graph midpoint)", "assay_type": "cell-based, human", "conditions": "Non-Small Cell Lung Cancer panel average; read-out: GI50 mean graph midpoint (MG_MID)", "method": "as §2, §3"}, "Ovarian Cancer panel": {"system": "Ovarian Cancer panel", "assay": "NCI-60 five-dose assay, panel-level GI50 (mean graph midpoint)", "assay_type": "cell-based, human", "conditions": "Ovarian Cancer panel average; read-out: GI50 mean graph midpoint (MG_MID)", "method": "as §2, §3"}, "[18]": {"system": "MALME-3M (melanoma cell line)", "assay": "NCI-60 five-dose assay", "conditions": "MALME-3M"}, "[19]": {"system": "MDA-MB-435 (melanoma cell line)", "assay": "NCI-60 five-dose assay", "conditions": "MDA-MB-435"}, "[20]": {"conditions": "read-out: Growth inhibition 50 (GI50), five doses (10^−4–10^−8 M)"}, "[21]": {"conditions": "read-out: LC50 (molar concentration leading to 50% net cell death)"}}, "data": [{"substance": "N-(3-(4-Benzylpiperazin-1-yl)propyl)-2-chloro-1,4,5,6-tetrahydrobenzo[6,7]cyclohepta[1,2-b]pyrrole-2-carboxamide [Compound 11]", "values": [{"measurement": "growth inhibition (GI%) and cytotoxicity (negative values)", "setting": "[1]", "result": "– (GI% values < 60% and no cytotoxicity)"}, {"measurement": "growth inhibition (GI%) and cytotoxicity (negative values)", "setting": "[2]", "result": 76.14, "unit": "%"}, {"measurement": "growth inhibition (GI%) and cytotoxicity (negative values)", "setting": "[3]", "result": 70.83, "unit": "%"}, {"measurement": "growth inhibition (GI%) and cytotoxicity (negative values)", "setting": "[4]", "result": 96.84, "unit": "%"}, {"measurement": "growth inhibition (GI%) and cytotoxicity (negative values)", "setting": "[5]", "result": 91.03, "unit": "%"}, {"measurement": "growth inhibition (GI%) and cytotoxicity (negative values)", "setting": "[6]", "result": 99.73, "unit": "%"}, {"measurement": "growth inhibition (GI%) and cytotoxicity (negative values)", "setting": "[7]", "result": 90.34, "unit": "%"}, {"measurement": "growth inhibition (GI%) and cytotoxicity (negative values)", "setting": "[8]", "result": 61.71, "unit": "%"}, {"measurement": "growth inhibition (GI%) and cytotoxicity (negative values)", "setting": "[9]", "result": 99.74, "unit": "%"}, {"measurement": "growth inhibition (GI%) and cytotoxicity (negative values)", "setting": "[10]", "result": "– (GI% values < 60% or no cytotoxicity)"}, {"measurement": "growth inhibition (GI%) and cytotoxicity (negative values)", "setting": "[11]", "result": "– (GI% values < 60% and no cytotoxicity)"}, {"measurement": "growth inhibition (GI%) and cytotoxicity (negative values)", "setting": "[12]", "result": 66.07, "unit": "%"}, {"measurement": "growth inhibition (GI%) and cytotoxicity (negative values)", "setting": "[13]", "result": 63.12, "unit": "%"}, {"measurement": "GI50", "setting": "[14]", "result": 2.2, "unit": "µM"}, {"measurement": "GI50", "setting": "SR (leukemia cell line)", "result": 2.49, "unit": "µM"}, {"measurement": "GI50", "setting": "[15]", "result": 3.37, "unit": "µM"}, {"measurement": "GI50", "setting": "[16]", "result": 2.6, "unit": "µM"}, {"measurement": "GI50", "setting": "Breast Cancer panel", "result": 3.47, "unit": "µM"}, {"measurement": "GI50", "setting": "CNS Cancer panel", "result": 5.25, "unit": "µM"}, {"measurement": "GI50", "setting": "[17]", "result": 7.08, "unit": "µM"}, {"measurement": "GI50", "setting": "Ovarian Cancer panel", "result": 7.94, "unit": "µM"}, {"measurement": "TGI (molar concentration giving total growth inhibition)", "setting": "[18]", "result": 3.48, "unit": "µM"}, {"measurement": "GI50", "setting": "[18]; [20]", "result": 1.9, "unit": "µM"}, {"measurement": "CC50", "setting": "[18]; [21]", "result": 6.46, "unit": "µM"}, {"measurement": "TGI (molar concentration giving total growth inhibition)", "setting": "[19]", "result": 7.41, "unit": "µM"}, {"measurement": "GI50", "setting": "[19]; [20]", "result": 2.59, "unit": "µM"}, {"measurement": "CC50", "setting": "[19]; [21]", "result": 30.2, "unit": "µM"}]}]}
